These results are taken from US9642373B2, “Insecticidal compositions and methods of using same” (Woodstream Corporation, priority 2004, dated 2017).

Structures are written as SMILES.

For this assay, the system named is insects. The assay can be described thus: Previous experiments, treatment of insects with 1% SLS alone (data not shown). The assay is classed as in vivo. The note with it: 300 second time period used in testing.

In the case of `CCCCCCCCCCCCOS(=O)(=O)[O-].[Na+]` [1% SLS, sodium lauryl sulfate], the Kill time was over 300 s.
